Measured values reported in patent US12378193B2, “Anti-arrhythmicity agents” (The Regents of the University of California, priority 2014, dated 2025).
Entries after “also recorded” stand apart in the source; their conditions may differ.

Assays:
[1] = test system: wild type zebrafish embryos; experiment: Cardiac performance (line-scan fractional shortening, heart rate) of wild type embryos; format: in vivo
Experimental: Movies of GFP-labelled myl7:GFP hearts were taken at 30 frames per second. Line-scan analysis was performed along a line through the atria or the ventricles of these hearts (Nguyen et al., 2009, Drug Discovery Today: Disease Models 5). Fraction of shortening was deduced from the ratio of diastolic and systolic width and heart rate was determined by beats per minute. Cardiac parameters were analyzed in tremblor^tc318 and VDAC2^LA2256 at 2 dpf.

[2] = test system: mouse embryonic stem cell-derived cardiomyocytes (mESC-CMs); experiment: Ca2+ overload-induced irregular Ca2+ transients and contractions in mESC-CMs; format: cell-based; settings: 10 mM Ca2+ext + 10 μM efsevin
Experimental: The mouse E14Tg2a ESC and human H9 ESC line were cultured and differentiated as previously described (Blin et al., 2010, J Clin Invest 120, 1125-1139; Arshi et al., 2013, Sci Technol Adv Mater 2013, 025003). At day 10 of differentiation, beating mouse EBs were exposed to external solution containing 10 mM CaCl2 for 10 minutes before DMSO or efsevin (10 μM) treatment. Human EBs were differentiated for 15 days and treated with 5 mM CaCl2) for 10 minutes before DMSO or efsevin (5 μM) treatment. Images of beating EBs were acquired at a rate of 30 frames/sec and analyzed by motion-detection software. For calcium recording, the EBs were loaded with 10 μM fluo-4 AM in culture media for 30 minutes at 37° C. Line-scan analysis was performed and fluorescent signals were acquired by a Zeiss LSM510 confocal microscope.

HeLa cells = experiment: Mitochondria Ca2+ uptake assay in HeLa cells; format: cell-based; settings: permeabilized cells, 1 μM efsevin, Rhod2
Experimental: HeLa cells were transfected with zebrafish VDAC2 using Lipofectamine™ 2000 (Invitrogen). 36 hrs after transfection, cells were loaded with 5 μM Rhod2-AM (Invitrogen), a Ca^2+ indicator preferentially localized in mitochondria, for 1 hour at 15° C. followed by a 30 min de-esterification period at 37° C. Subsequently, cells were permeabilized with 100 μM digitonin for 1 min at room temperature. Fluorescence changes in Rhod2 (ex: 544 nm, em: 590 nm) immediately after the addition of Ca^2+ (final free Ca^2+ concentration is calculated to be approximately 10 μM using WEBMAXC at http://web.stanford.edu/˜cpatton/webmaxcS.htm) were monitored in internal buffer (5 mM K-EGTA, 20 mM HEPES, 100 mM K-aspartate, 40 mM KCl, 1 mM MgCl2, 2 mM maleic acid, 2 mM glutamic acid, 5 mM pyruvic acid, 0.5 mM KH2PO4, 5 mM MgATP, pH adjusted to 7.2 with Trizma base) using a FLUOSTAR plate reader (BMG Labtech).

V1/V3 DKO MEFs = experiment: Mitochondria Ca2+ uptake assay in VDAC1/VDAC3 double knockout MEFs; format: cell-based
Experimental: V1/V3 DKO MEFs were cultured as previously described (Roy et al., 2009a, EMBO Rep 10, 1341-1347). Efsevin-treated (15 μM for 30 min) or mock-treated MEFs were used for measurements of [Ca^2+]c in suspensions of permeabilized cells or imaging of [Ca^2+]m simultaneously with [Ca^2+]c in intact single cells. Permeabilization of the plasma membrane was performed by digitonin ([…]). Changes in [Ca^2+] in the cytoplasmic buffer upon IP3 (7.5 μM) addition in the presence or absence of ruthenium red (3 μM) was measured by fura2 in a fluorometer (Csordas et al., 2006, J Cell Biol 174, 915-921; Roy et al., 2009b, Mol Cell 33, 377-388). To avoid endoplasmic reticulum Ca^2+ uptake 2 μM thapsigargin was added before IP3. For imaging of [Ca^2+]m and [Ca^2+]c, MEFs were co-transfected with plasmids encoding polycistronic zebrafish VDAC2 with mCherry and mitochondria-targeted inverse pericam for 40 hours. Cells were sorted to enrich the transfected cells and attached to glass coverslips. In the final 10 min, of the efsevin or mock-treatment, the cells were also loaded with fura2AM (2.5μ[…]) and subsequently transferred to the microscope stage. Stimulation with 1 μM ATP was carried out in a norminally Ca^2+ free buffer. […]

CCOC(=O)C1=CCN(S(=O)(=O)c2ccc(C)cc2)C1c1ccccc1 (centres unmarked) [efsevin]
cardiac performance of wild-type embryos ([1]; efsevin-treated wild-type embryo, 2 dpf): did not affect cardiac performance
heart rate ([1]; efsevin-treated wild-type embryos): 123±3 bpm
Atrial FS ([1]; wild type + efsevin, 48 hpf): 35±2%
Ventricular FS ([1]; wild type + efsevin, 48 hpf): 39±1%
rhythmic Ca2+ transients and contractions under Ca2+ overload [2]: restored rhythmic Ca2+ transients and cardiac contractions; also recorded: restores regular Ca^2+ transients
mitochondrial Ca2+ uptake after addition of Ca2+ (HeLa cells): increased mitochondrial Ca^2+ uptake
transfer of Ca2+ released from intracellular stores into mitochondria (V1/V3 DKO MEFs; intact V1/V3 DKO MEFs, stimulation with ATP): accelerated the transfer of Ca^2+
Ca2+ transferred into mitochondria during IP3-induced Ca2+ release (V1/V3 DKO MEFs; permeabilized V1/V3DKO MEFs, efsevin 15 μM for 30 min, 7.5 μM IP3): increased the amount of Ca^2+ transferred into mitochondria
